Assay results as given in patent US12427171B2, “Krill oil composition enriched in LPC-DHA and LPC-EPA” (Aker BioMarine Human Ingredients AS, priority 2020, dated 2025).

How the values were obtained:
[1] = Rat retinal fatty acid composition after daily gavage of DHA as TAG, PC or LPC for 30 days (GC/MS); type: in vivo
Procedure: Normal male Sprague-Dawley rats (8-week-old; n=5 per group) were gavaged daily with 10 mg DHA in 250 μL corn oil in the form of TAG-DHA, di-DHA PC, or LPC-DHA for 30 days. […] All animals were on regular rodent chow that contained no DHA, but contained 17.4 mg α-linolenic acid (18:3, n-3) per g of chow. Retinal FA were analyzed by GC/MS as described in the text. The percent composition of 20:4 (n-6), 20:5 (n-3), 22:5 (n-3), and 22:6 (n-3) are shown here. The significance of differences between the treatment groups was determined by a one-way ANOVA, with Tukey multiple post-hoc test (Graphpad Prism 8.0). […] TG: triacylglycerol; PC: phosphatidylcholine; LPC: lysophosphatidylcholine; FA: fatty acid; GC/MS: gas chromatography/mass spectroscopy.
(§1) Animals and dietary treatments: All studies in animals described here were approved by the Institutional Animal Care and Use Committee of the University of Illinois at Chicago. The retina samples were obtained from our previous studies on the brain accretion of DHA in mice and rats, which were published previously. Male Sprague-Dawley rats (8-week-old) were purchased from Harlan laboratories (Indianapolis, IN, USA). Male C57 BL/J6 mice (2-4-months-old) were purchased from Jackson Laboratories (Bar Harbor. Maine).
(§2) In the first study, male Sprague-Dawley rats (n=5 per group, 8-week-old) were gavaged daily with 10 mg of DHA (40 mg DHA/kg body weight) in the form of TAG-DHA (DHASCO algal oil, DSM Nutritional Products, Columbia, MD, USA), synthetic di-DHA PC (phosphatidylcholine), or synthetic LPC-DHA (sn-1 acyl) for 30 days. The DHA was distributed equally among the three positions of TAG-DHA [17]. […] In the second study, 4-month-old male C57 BL/J6 mice (n=8 per group) were gavaged daily with 40 mg DHA/kg body weight in the form of free (unesterified) DHA, sn-1 acyl LPC-DHA, or sn-2 acyl LPC-DHA for 30 days as described previously. In the third study, male C57 BL/J6 mice (2-months-old, n=5 per group) were fed diets enriched with natural or lipase-treated fish oil or hill oil for 30 days. The total amount of omega-3 FA (eicosapentaenoic acid (EPA)+DHA) was 2.64 g/kg diet in all the diets. The untreated hill oil contained 18% of total omega-3 FA as LPC, whereas the lipase-treated hill oil contained >80% of the total omega-3 FA as LPC. The fish oil diets contained no LPC-EPA or LPC-DHA. The animals were trans-cardially perfused with ice cold phosphate buffered saline under anesthesia and the retinas were collected and kept frozen at −80° C. until the analysis.
(§3) Analytical procedures: The total lipids of retina were extracted by Bligh and Dyer procedure and the fatty acids were methylated using methanolic HCl. The fatty acid analysis was carried out by GC/MS (gas chromatography/mass spectroscopy) using Shimadzu QP2010SE equipped with Supelco Omegawax column, as described previously. Total ion current in the range of 50-400 m/z was used for quantification of the methyl esters. For LC/MS/MS (liquid chromatography/tandem mass spectroscopy) analysis, the lipids were extracted by the procedure of Ivanova et al.. The analysis of molecular species of phospholipids was performed on an ABSciex QTRAP mass spectrometer (Redwood City, CA, USA) coupled with Agilent 2600 UPLC system (Santa Clara, CA, USA), by multiple reaction monitoring. The internal standards 17:0 LPC, di 17:0 PC, and di 17:0 PE (phosphatidylethanolamine) were used for the quantification of the corresponding molecular species, without applying any correction factors for the differences in the ion intensity of different molecular species.
Statistics and correlations: The significance of differences between treatment groups was determined by a one-way ANOVA, with Tukey post-hoc multiple comparison corrections or unpaired t-test between control and treated samples adjusted with Holm-Sidak method (Graphpad Prism 8.0, San Diego, CA, USA). […]

[2] = Mouse retinal fatty acid composition after daily gavage of free DHA, sn-1 DHA LPC or sn-2 DHA LPC for 30 days (GC/MS); type: in vivo
Procedure: Normal male mice (C57 BL/J6, 16-week-old) were gavaged daily with 1 mg DHA in the form of free DHA, sn-1 DHA LPC, or sn-2 DHA LPC in 80 μL corn oil for 30 days. Retinal FA composition was analyzed by GC/MS. Only the values for arachidonic acid and the omega-3 FA are shown here (mean±SD, 8 animals/group). […] SD: standard deviation; sn-1 and sn-2: stereospecific numbering 1 and 2 respectively; LPC: lysophosphatidylcholine; DHA: docosahexaenoic acid.
as §1, §2, §3
Statistics and correlations: The significance of differences between treatment groups was determined by a one-way ANOVA, with Tukey post-hoc multiple comparison corrections or unpaired t-test between control and treated samples adjusted with Holm-Sidak method (Graphpad Prism 8.0, San Diego, CA, USA).

CC/C=C\C/C=C\C/C=C\C/C=C\C/C=C\C/C=C\CCC(=O)OC[C@H](COP(=O)([O-])OCC[N+](C)(C)C)OC(=O)CC/C=C\C/C=C\C/C=C\C/C=C\C/C=C\C/C=C\CC [PC-DHA]
rat retinal fatty acid composition, 12:0, Mean ([1]; 10 mg DHA daily by gavage): 4.57 % of total FA | rat retinal fatty acid composition, 14:0, Mean ([1]; 10 mg DHA daily by gavage): 0.97 % of total FA | rat retinal fatty acid composition, 16:0, Mean ([1]; 10 mg DHA daily by gavage): 19.06 % of total FA | rat retinal fatty acid composition, 16:0 DMA, Mean ([1]; 10 mg DHA daily by gavage): 0.05 % of total FA | rat retinal fatty acid composition, 16:1 (n-7), Mean ([1]; 10 mg DHA daily by gavage): 0.65 % of total FA | rat retinal fatty acid composition, 17:1 (n-7), Mean ([1]; 10 mg DHA daily by gavage): 0.03 % of total FA | rat retinal fatty acid composition, 18:0, Mean ([1]; 10 mg DHA daily by gavage): 17.79 % of total FA | rat retinal fatty acid composition, 18:0 DMA, Mean ([1]; 10 mg DHA daily by gavage): 0.03 % of total FA | rat retinal fatty acid composition, 18:1 (n-7), Mean ([1]; 10 mg DHA daily by gavage): 3.91 % of total FA | rat retinal fatty acid composition, 18:1 (n-9), Mean ([1]; 10 mg DHA daily by gavage): 17.70 % of total FA | rat retinal fatty acid composition, 18:1 DMA, Mean ([1]; 10 mg DHA daily by gavage): 0.06 % of total FA | rat retinal fatty acid composition, 18:2 (n-6), Mean ([1]; 10 mg DHA daily by gavage): 0.95 % of total FA | rat retinal fatty acid composition, 18:3 (n-3), Mean ([1]; 10 mg DHA daily by gavage): 0.07 % of total FA | rat retinal fatty acid composition, 18:3 (n-6), Mean ([1]; 10 mg DHA daily by gavage): 0.49 % of total FA | rat retinal fatty acid composition, 20:0, Mean ([1]; 10 mg DHA daily by gavage): 0.05 % of total FA | rat retinal fatty acid composition, 20:1 (n-9), Mean ([1]; 10 mg DHA daily by gavage): 0.07 % of total FA | rat retinal fatty acid composition, 20:2 (n-6), Mean ([1]; 10 mg DHA daily by gavage): 0.06 % of total FA | rat retinal fatty acid composition, 20:3 (n-6), Mean ([1]; 10 mg DHA daily by gavage): 0.06 % of total FA | rat retinal fatty acid composition, 20:4 (n-6), Mean ([1]; 10 mg DHA daily by gavage): 8.45 % of total FA | rat retinal fatty acid composition, 20:5 (n-3), Mean ([1]; 10 mg DHA daily by gavage): 0.06 % of total FA | rat retinal fatty acid composition, 22:0, Mean ([1]; 10 mg DHA daily by gavage): 0.07 % of total FA | rat retinal fatty acid composition, 22:2 (n-6), Mean ([1]; 10 mg DHA daily by gavage): 0.12 % of total FA | rat retinal fatty acid composition, 22:4 (n-6), Mean ([1]; 10 mg DHA daily by gavage): 0.07 % of total FA | rat retinal fatty acid composition, 22:5 (n-3), Mean ([1]; 10 mg DHA daily by gavage): 0.06 % of total FA | rat retinal fatty acid composition, 22:5 (n-6), Mean ([1]; 10 mg DHA daily by gavage): 0.02 % of total FA | rat retinal fatty acid composition, 22:6 (n-3), Mean ([1]; 10 mg DHA daily by gavage): 24.53 % of total FA | rat retinal fatty acid composition, 24:1 (n-9), Mean ([1]; 10 mg DHA daily by gavage): 0.05 % of total FA | change of the percentage of DHA in retina versus control ([1]; rats, 10 mg DHA/day (40 mg DHA/kg)): +45%

CC/C=C\C/C=C\C/C=C\C/C=C\C/C=C\C/C=C\CCC(=O)O [Free DHA, docosahexaenoic acid]
fatty acid composition of mouse retina, 12:0, Mean ± S.D. ([2]; 1 mg DHA daily by gavage): 0.60 ± 0.35 | fatty acid composition of mouse retina, 14:0, Mean ± S.D. ([2]; 1 mg DHA daily by gavage): 0.20 ± 0.17 | fatty acid composition of mouse retina, 16:0, Mean ± S.D. ([2]; 1 mg DHA daily by gavage): 16.11 ± 1.56 | fatty acid composition of mouse retina, 16:0 DMA, Mean ± S.D. ([2]; 1 mg DHA daily by gavage): 0.75 ± 0.56 | fatty acid composition of mouse retina, 16:1 (n-7), Mean ± S.D. ([2]; 1 mg DHA daily by gavage): 0.55 ± 0.28 | fatty acid composition of mouse retina, 17:1 (n-7), Mean ± S.D. ([2]; 1 mg DHA daily by gavage): 0.43 ± 0.16 | fatty acid composition of mouse retina, 18:0, Mean ± S.D. ([2]; 1 mg DHA daily by gavage): 17.32 ± 0.66 | fatty acid composition of mouse retina, 18:0 DMA, Mean ± S.D. ([2]; 1 mg DHA daily by gavage): 2.10 ± 0.88 | fatty acid composition of mouse retina, 18:1(n-7), Mean ± S.D. ([2]; 1 mg DHA daily by gavage): 4.18 ± 0.34 | fatty acid composition of mouse retina, 18:1 (n-9), Mean ± S.D. ([2]; 1 mg DHA daily by gavage): 17.14 ± 0.78 | fatty acid composition of mouse retina, 18:1 DMA, Mean ± S.D. ([2]; 1 mg DHA daily by gavage): 0.85 ± 0.56 | fatty acid composition of mouse retina, 18:2 (n-6), Mean ± S.D. ([2]; 1 mg DHA daily by gavage): 0.99 ± 0.65 | fatty acid composition of mouse retina, 18:3 (n-3), Mean ± S.D. ([2]; 1 mg DHA daily by gavage): 0.49 ± 0.15 | fatty acid composition of mouse retina, 18:3 (n-6), Mean ± S.D. ([2]; 1 mg DHA daily by gavage): 0.49 ± 0.36 | fatty acid composition of mouse retina, 20:0, Mean ± S.D. ([2]; 1 mg DHA daily by gavage): 1.90 ± 0.64 | fatty acid composition of mouse retina, 20:1 (n-9), Mean ± S.D. ([2]; 1 mg DHA daily by gavage): 3.42 ± 0.59 | fatty acid composition of mouse retina, 20:2 (n-6), Mean ± S.D. ([2]; 1 mg DHA daily by gavage): 0.71 ± 0.50 | fatty acid composition of mouse retina, 20:3 (n-6), Mean ± S.D. ([2]; 1 mg DHA daily by gavage): 1.30 ± 0.66 | fatty acid composition of mouse retina, 20:4 (n-6), Mean ± S.D. ([2]; 1 mg DHA daily by gavage): 7.42 ± 0.72 | fatty acid composition of mouse retina, 20:5 (n-3), Mean ± S.D. ([2]; 1 mg DHA daily by gavage): 2.03 ± 1.21 | fatty acid composition of mouse retina, 22:0, Mean ± S.D. ([2]; 1 mg DHA daily by gavage): 1.08 ± 0.59 | fatty acid composition of mouse retina, 22:2 (n-6), Mean ± S.D. ([2]; 1 mg DHA daily by gavage): 0.77 ± 0.51 | fatty acid composition of mouse retina, 22:4 (n-6), Mean ± S.D. ([2]; 1 mg DHA daily by gavage): 2.51 ± 0.85 | fatty acid composition of mouse retina, 22:5 (n-3), Mean ± S.D. ([2]; 1 mg DHA daily by gavage): 0.42 ± 0.15 | fatty acid composition of mouse retina, 22:6 (n-3), Mean ± S.D. ([2]; 1 mg DHA daily by gavage): 15.74 ± 1.57 | fatty acid composition of mouse retina, 24:1 (n-9), Mean ± S.D. ([2]; 1 mg DHA daily by gavage): 0.51 ± 0.25 | effect on retinal DHA ([2]; mice, 1 mg DHA daily): no effect
